In patent publication US6387912B1, “Utilization of pyrimidine derivatives for preventing and treating cerebral ischaemia” (BASF Aktiengesellschaft, priority 1999, dated 2002):
Structures can show the parent of a compound that is named as a salt.

melting point	SMILES
170 to 172 °C	COc1ccccc1N1CCN(CCn2cnc3sc4c(c3c2=O)CCN(C(C)=O)C4)CC1 [Example 116, 3,4,5,6,7,8-Hexahydro-7-acetyl-3-[2-(4-(2-methoxyphenyl)-piperazin-1-yl)ethyl]pyrido[4′,3′:4,5]thieno[2,3-d]-pyrimidin-4-one]
136 to 138 °C	Cc1ccnc(N2CCN(CCn3cnc4sc5c(c4c3=O)CCN(C)C5)CC2)n1 [Example 153, 3,4,5,6,7,8-Hexahydro-7-methyl-3-[2-(4-(4-methylpyrimidin-2-yl)piperazin-1-yl)ethyl]pyrido[4′,3′:4,5]thieno[2,3-d]-pyrimidin-4-one]
135 to 137 °C	COc1ccccc1N1CCN(CCn2c(O)nc3sc4c(c3c2=O)CCN(C(C)=O)C4)CC1 [Example 121, 3,4,5,6,7,8-Hexahydro-7-acetyl-2-hydroxy-3-[2-(4-(2-methoxyphenyl)piperazin-1-yl)ethyl]pyrido[4′,3′:4,5]thieno-[2,3-d]pyrimidin-4-one]
139 to 141 °C	Cc1ccc(N2CCN(CCn3cnc4sc5c(c4c3=O)CCN(C)C5)CC2)c2ccccc12 [Example 138, 3,4,5,6,7,8-Hexahydro-7-methyl-3-[2-(4-(4-methylnaphth-1-yl)piperazin-1-yl)ethyl]pyrido[4′,3′:4,5]thieno[2,3-d]-pyrimidin-4-one]
162 to 164 °C	CN1CCc2c(sc3ncn(CCN4CCN(c5ccccc5C#N)CC4)c(=O)c23)C1 [Example 68, 3,4,5,6,7,8-Hexahydro-7-methyl-3-[2-(4-(2-cyanophenyl)-piperazin-1-yl)ethyl]pyrido[4′,3′:4,5]thieno[2,3-d]-pyrimidin-4-one]
157 to 158 °C	CN1CCc2c(sc3ncn(CCN4CCN(c5ccc(F)c6ccccc56)CC4)c(=O)c23)C1 [Example 140, 3,4,5,6,7,8-Hexahydro-7-methyl-3-[2-(4-(4-fluoronaphth-1-yl)-piperazin-1-yl)ethyl]pyrido[4′,3′:4,5]thieno[2,3-d]-pyrimidin-4-one]

Further lines, the compound ahead of its results:

SMILES	melting point
CN1CCc2c(sc3ncn(CCCN4CCN(c5ccccc5C#N)CC4)c(=N)c23)C1 [Example 37, 3,4,5,6,7,8-Hexahydro-7-methyl-3-[3-(4-(2-cyanophenyl)-piperazin-1-yl)propyl]pyrido[4′,3′:4,5]thieno[2,3-d]-pyrimidin-4-imine]	148 to 150 °C
CN1CCc2c(sc3ncn(CCN4CCN(c5ncccn5)CC4)c(=N)c23)C1 (as salt: tartrate) [Example 20, 3,4,5,6,7,8-Hexahydro-7-methyl-3-[2-(4-pyrimidin-2-yl-piperazin-1-yl)ethyl]pyrido[4′,3′:4,5]thieno[2,3-d]-pyrimidin-4-imine]	112 to 114 °C (dec.)
CCOC(=O)N1Cc2sc3ncn(CCCN4CCN(c5ccccc5C#N)CC4)c(=O)c3c2C1 [Example 43, 3,4,5,7-Tetrahydro-6-carboethoxy-3-[3-(4-(2-cyanophenyl)-piperazin-1-yl)propyl]pyrrolo[3′,4′:4,5]thieno[2,3-d]-pyrimidin-4-one]	190 °C
Cc1cccc(N2CCN(CCn3cnc4sc5c(c4c3=O)CCN(C)C5)CC2)c1C [Example 44, 3,4,5,6,7,8-Hexahydro-7-methyl-3-[2-(4-(2,3-dimethylphenyl)-piperazin-1-yl)ethyl]pyrido[4′,3′:4,5]thieno[2,3-d]pyrimidin-4-one]	163 to 167 °C
CCN1CCc2sc3ncn(CCN4CCN(c5ccccc5Cl)CC4)c(=O)c3c2C1 [Example 5, 3,4,5,6,7,8-Hexahydro-6-ethyl-3-[2-(4-(2-chlorophenyl)-piperazin-1-yl)ethyl]pyrido[3′,4′:4,5]thieno[2,3-d]-pyrimidin-4-one]	148 to 150 °C
CN1CCc2c(sc3ncn(CCCN4CCN(c5ccccc5O)CC4)c(=N)c23)C1 [Example 29, 3,4,5,6,7,8-Hexahydro-7-methyl-3-[3-(4-(2-hydroxyphenyl)-piperazin-1-yl)propyl]pyrido[4′,3′:4,5]thieno[2,3-d]-pyrimidin-4-imine]	164 to 166 °C
CN1CCc2c(sc3ncn(CCN4CCN(c5ncccn5)CC4)c(=O)c23)C1 [Example 27, 3,4,5,6,7,8-Hexahydro-7-methyl-3-[2-(4-pyrimidin-2-ylpiperazin-1-yl)ethyl]pyrido[4′,3′:4,5]thieno[2,3-d]-pyrimidin-4-one]	146 to 148 °C
